Consider 1 substance from US6274348A, “Methods for the preparation of positively charged proteins” (XOMA Corporation, priority 1997, dated 2001).

Test [1] deals with T1, rBPI(1-191)-IgG fusion protein (human BPI residues 1-191 fused to human IgG1 heavy chain hinge-CH2-CH3) (Homo sapiens, UniProt P01857+P17213).
T1 construct: an rBPI(1-191)-IgG fusion protein was added to the wells of a 96-well plate; made in house; host or cells: CHO-DG44
The test is described as follows: direct 3H-heparin binding assay. The conditions noted are these: highest 3H heparin concentration tested 2.5 μM; protein at 100 pmol/well, one hour at 4° C. The text has this: (§1) A direct ^3 H-heparin binding assay was utilized to analyze the comparative binding of rBPI(1-199) and rBPI-Ig fusions to heparin. The assay was based on the ability of a derivatized nylon membrane to bind proteins with high capacity. Such a membrane has been incorporated into the bottom of 96-well microtiter plates by Millipore Corp. (Bedford Mass.) (MULTISCREEN IP plates) and may be punched out of each well for scintillation counting.
(§2) To conduct the assay, rBPI(1-199) or an rBPI(1-191)-IgG fusion protein was added to the wells of a 96-well plate at a concentration of 100 pmol/well diluted with phosphate buffered saline (PBS), pH 7.4 nylon membrane. Upon absorption to the membrane, the wells were blocked with a blocking buffer comprising 0.1% bovine serum albumin (BSA) in PBS. Serial dilutions of ^3 H heparin (DuPont, NEN, Wilmington, Del.) were made from 4-5 μg/ml in the blocking buffer and incubated in the wells coated with either rBPI(1-199) and rBPI(1-191)-IgG for one hour at 4° C. After one hour, unbound heparin was aspirated and the wells were washed three times with blocking buffer, dried, and removed for quantitation of bound ^3 H-heparin by liquid scintillation counting.

The target of test [2] is T2, rBPI(1-199), first 199 N-terminal amino acids of mature human BPI (SEQ ID NOS: 1 and 2) (Homo sapiens, UniProt P17213).
T2 construct: made in house
T2 sequence (P17213 32-230): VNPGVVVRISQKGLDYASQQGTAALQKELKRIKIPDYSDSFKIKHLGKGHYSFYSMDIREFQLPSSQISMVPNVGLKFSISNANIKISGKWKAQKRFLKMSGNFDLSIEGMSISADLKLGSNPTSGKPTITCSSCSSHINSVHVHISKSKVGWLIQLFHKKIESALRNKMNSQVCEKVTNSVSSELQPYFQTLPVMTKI
Description: direct 3H-heparin binding assay. Particulars: protein adsorbed to nylon membrane at 100 pmol/well, 3H heparin dilutions, one hour at 4° C., PBS pH 7.4 with 0.1% BSA; read-out: apparent affinity (Kd) for heparin.
Source text: as §1, §2

T1 sequence (P17213+P01857 fused): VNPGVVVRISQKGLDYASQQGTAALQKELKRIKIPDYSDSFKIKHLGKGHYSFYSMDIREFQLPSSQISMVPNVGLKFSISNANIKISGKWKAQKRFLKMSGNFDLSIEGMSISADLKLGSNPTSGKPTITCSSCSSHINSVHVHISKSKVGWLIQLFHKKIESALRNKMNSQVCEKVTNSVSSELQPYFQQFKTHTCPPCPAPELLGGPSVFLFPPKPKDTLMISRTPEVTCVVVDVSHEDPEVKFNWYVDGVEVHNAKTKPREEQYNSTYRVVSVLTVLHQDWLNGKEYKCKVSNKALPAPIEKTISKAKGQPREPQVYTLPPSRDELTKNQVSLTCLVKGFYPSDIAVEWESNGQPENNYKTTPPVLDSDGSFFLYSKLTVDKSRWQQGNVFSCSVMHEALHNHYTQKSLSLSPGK

In the case of heparin, in test [1], the “saturation of 3H heparin binding” value was “did not reach saturation”. For the same substance, the Kd in test [2] came out at 114 ± 30 nM.
